Test [1] relates to P. falciparum NF54 liver stage parasites. The test can be described thus: P. falciparum NF54 schizont development in primary human hepatocytes. In kind it is cell-based. The note with it: Plasmodium falciparum, NF54, Hepatocyte, 96 h.
Test [2] deals with P. falciparum Dd2 PfYRSS234C mutant lines. The test can be described thus: 72-h sensitivity of CRISPR-edited PfYRSS234C clones. Particulars: for IC50: Plasmodium falciparum, DD2, 72 h, 72-h exposure. In kind it is cell-based, Plasmodium falciparum. As for the experimental part: 700 the drug plate. Lowest drug treatment and a lethal dose of chloroquine (200 nM) served as reference
701 controls. Growth inhibition was analysed after 72 h using the Renilla-Glo(R) Luciferase Assay System (ref
702 no E2750 Promega) and the GloMax® Discover Multimode Microplate Reader (Promega), and IC50 values
703 were obtained from corrected dose-response curves using GraphPad Prism (version 8; GraphPad Software).
705 Generation of PfYRSS234C transfectants
706 CRISPR/Cas9 was used to generate parasites encoding the S234C mutation in exon 2 of PfYRS, as shown
707 in Suppl Figure 6. Two guide RNAs (gRNA1: […] and gRNA2:
708 […]) were selected using Benchling (benchling.com), and cloned into the
709 pDC2-coCas9-gRNA plasmid essentially as described previously (58). A donor template of 645 bp,
710 encompassing the majority of the 708 bp exon 2, was synthesized (ThermoFisher) and cloned into the
711 AatII/EcoRI sites of both the pDC2-coCas9-gRNA1 and pDC2-coCas9-gRNA2 plasmids. In addition to
712 the TCC>TGC (S234C) mutation, additional silent shield mutations were introduced to prevent gRNA-
713 Cas9 complex binding, as shown in Suppl Figure 6. Ring-stage P. falciparum parasites (Dd2 strain) at 10%
714 parasitemia (150 µL of packed cells) were transfected with 50 µg of plasmid DNA using a BioRad Gene
715 Pulser II (310 V, 950 µF), and selected with 5 nM WR99210 (Jacobus Pharmaceuticals) for 8 days, after
716 which culture was continued without drug pressure until transfectants were obtained. Clones of the
717 PfYRSS234C mutant parasites were isolated by limiting dilution and verified by Sanger sequencing. […]
(§1) 729 Cam 3.II_Rev (25) trophozoite-infected RBCs (25-30 h p.i.) were incubated with inhibitor for 3 h at 10%
(§2) 730 hematocrit and 5% parasitemia. The RBC pellet was washed 3 x in PBS + cOmplete. Cells were centrifuged
(§3) 731 at 380 x g for 5 min and the pelleted cells lysed by resuspension in PBS + 0.05% saponin for 5 min on ice.

For a further test, the system named is H460. The test can be described thus: H460 cell viability (ATP content). In kind it is cell-based. Particulars: Homo sapiens, NCI-H460, 72 h, read-out: H460 IC50(72h). As for the experimental part:
(§4) 574 H1650 is a human lung cancer derived ATG7-null cell line (49) that can be used to assess effects on targets
(§5) 576 adenocarcinoma; bronchoalveolar carcinoma). Other cells lines used are: H460 (NCI-H460; human lung;
(§6) 577 carcinoma; large cell lung cancer; ATCC: HTB-177); and HCT116 (human colon; colorectal carcinoma;
(§7) 578 ATCC: CCL-247; Lot : 5056139). Each of the cell lines was received from the American Type Culture
(§8) 579 Collection (ATCC) and passaged twice before freezing. Cells were cultured in the presence or absence of
(§9) 580 inhibitors and cell viability was assessed by comparing the ATP content in compound-treated wells with
(§10) 581 that in DMSO-treated wells as previously described (11). […]
(§11) 585 37°C humidified incubator as adherent semi-confluent monolayers in complete Dulbecco’s Modified Eagle
(§12) 586 Media (c-DMEM). DMEM (Gibco™, Thermo Fisher Scientific, Australia) was supplemented with 10%

For test [3], the system named is protein translation in P. falciparum (Cam3.II-rev) schizonts. The test can be described thus: Protein translation assay (O-propargyl-puromycin incorporation). The test is classed as cell-based, Plasmodium falciparum. The note with it: Plasmodium falciparum, 3 h, read-out: IC50 (Translation), schizont stage Cam3.II-rev, 3 h exposure, OPP incorporation. How it is done:
723 then fixed for 10 minutes (4% formaldehyde/0.02% glutaraldehyde in PBS). The click reaction was
724 performed for 1 h in the presence of CuSO4 (0.1 mM), THPTA (0.5 mM) and sodium ascorbate (5 mM) to
725 bring about azide-alkyne cycloaddition to Alexa Fluor 488 azide (0.1 µM). Flow cytometry was performed
726 using the FITC and Cy™5.5 channels to detect the Alexa Fluor 488 and PI, respectively.
as §1, §2, §3

A further test relates to HCT116. The test can be described thus: HCT116 cell viability (ATP content). In kind it is cell-based. The note with it: Homo sapiens, HCT-116, 72 h, read-out: HCT116 IC50(72h). How it is done: as §4, §5, §6, §7, §8, §9, §10, §11, §12
Test [4] relates to P. falciparum female gametes. The test can be described thus: Dual gamete formation assay (female). In kind it is cell-based. The note with it: Plasmodium falciparum. As for the experimental part: 604 Activity against transmissible stages of P. falciparum
605 Activity against male gametes was assessed using the dual gamete formation assay (PfDGFA)(32).
606 Compounds were incubated with mature stage V gametocytes ([…], kind gift from Professor Chris Janse
607 at Leiden University Medical Center (LUMC), the Netherlands) for 48 hours in 384 well plates before
608 gamete formation was triggered by a drop in temperature and addition of xanthurenic acid. Male gamete
609 exflagellation was recorded and quantified by automated microscopy. The ability of female gametes to
611 Multiple data sets using different gametocyte cultures were collected on each of two separate days.
613 Activity against exoerythrocytic stages
614 Primary human hepatocytes (H1500.H15B+ Lot No. HC10-10 Cryopreserved human hepatocytes)
615 were cultured for 2 days and then overlaid with P. falciparum NF54 sporozoites and compounds.
616 Supernatant was refreshed daily with fresh compounds.

A further test has as its target T1, HsYRS (Homo sapiens, UniProt P54577).
T1 construct: made in house; host or cells: E. coli BL21(DE3), pET-11a
T1 sequence (P54577 1-364): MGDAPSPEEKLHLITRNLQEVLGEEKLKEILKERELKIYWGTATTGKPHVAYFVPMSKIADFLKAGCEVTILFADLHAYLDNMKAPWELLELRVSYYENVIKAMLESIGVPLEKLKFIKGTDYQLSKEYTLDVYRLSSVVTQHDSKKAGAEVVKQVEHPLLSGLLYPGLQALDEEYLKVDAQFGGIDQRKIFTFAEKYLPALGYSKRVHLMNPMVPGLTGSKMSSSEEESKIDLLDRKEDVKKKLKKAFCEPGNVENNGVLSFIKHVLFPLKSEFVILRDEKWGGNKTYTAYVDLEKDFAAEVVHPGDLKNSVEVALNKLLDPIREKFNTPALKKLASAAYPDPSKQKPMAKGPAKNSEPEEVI
The test can be described thus: Differential scanning fluorimetry, HsYRS. The test is classed as binding. Particulars: in the presence of ML901 plus substrates. As for the experimental part: This DNA template and its complementary strand were custom-synthesized by Sigma-
810 (HiScribe™ T7 Quick High Yield RNA Synthesis Kit, NEB). On the following day, the reaction mixture
820 was sealed and analysed using StepOnePlus Real-Time PCR system (Applied Biosystems). The samples
The thermal unfolding curve was plotted
The melting temperature (Tm), defined as the
Reactions were conducted in 50 mM Tris-
Reactions were conducted in 50 mM Tris-HCL, pH 7.6,
(In general: In DSF a fluorescence change marks the thermal transition of the protein.)

Usually inhibition stands for the percentage by which the read-out fell short of the control. Higher therefore signals strong suppression. In the case of `Nc1ncnc2c1c(OC(F)F)nn2[C@@H]1O[C@H](COS(N)(=O)=O)[C@@H](O)[C@H]1O` [ML901], the IC50 came out at 13 ± 5 nM in test [1]; 22 ± 1 nM in test [2] (Mutant E12 (PfYRSS234C)); 22 ± 3 nM in test [2] (Mutant F5 (PfYRSS234C)); 20 ± 1 nM in test [2] (Mutant G12 (PfYRSS234C)); 4.65 µM in the test on H460; 65 nM in test [3]. Moreover, the values for the IC50 (with HCT116; in test [4] (48 h incubation with stage V gametocytes)) were 2280 nM and 4.7 ± 0.3 µM, respectively. In addition, the “decreased sensitivity of PfYRSS234C transfectants” value in test [2] (Dd2 parent transfectants harboring PfYRSS234C) is listed as 10 fold. This compound displayed an inhibition at 25 µM in test [4] (at 25 µM) of 81%. Further, the “thermal stabilization of HsYRS” value on HsYRS was “not stabilized”.
